Experiment [1] has as its target Voltage-gated L-type calcium channel (Rattus norvegicus, UniProt P22002+Q02485+P27732). The experiment is described as follows: Displacement of [3H]nitrendipine from calcium channel receptor. Type of experiment: protein assay.
For experiment [2], the species on record is Mus musculus. Nature of the experiment: Blocking calcium channels in mice using electrophysiological technique at 100 uM. In kind it is functional.
For experiment [3], the species on record is Mus musculus. Nature of the experiment: Blocking calcium channels in mice using electrophysiological technique at 10 uM. In kind it is functional.

Here are results for eight molecules from ChEMBL document CHEMBL1126342, “Synthesis and preliminary biological evaluation of 1-aminomethyl-4-substituted-4-H-pyrrolo[2,1-C][1,4] benzothiazines, a new class of calcium antagonists” (Bioorg Med Chem Lett, 1992).

Structures are written as SMILES. “And” between values parts separate entries of the source, which are not always exact repeats. Identical values can stand only once.

The term IC50 denotes the concentration needed to halve the response being measured. The term Ki denotes the dissociation constant of the complex between target and ligand, obtained from inhibition or displacement.

On to `COc1ccc(C2Sc3ccccc3-n3c(CN(C)C)ccc32)c(OC)c1` (centres undefined), for which, in experiment [1], the IC50 is 150 nM and the Ki is listed as 56 nM. The Activity in the experiment filed under Mus musculus [2] is reported as 74%. Moreover, the Activity in the experiment listed under Mus musculus [3] came to 24%.

Regarding `COc1ccc(C2Sc3ccccc3-n3c(CN(C)C)ccc32)cc1` (centres undefined), the Activity in the experiment filed under Mus musculus [2] is on record as 62%; in the experiment filed under Mus musculus [3], 20%.

As for `COc1ccc(C2Sc3ccccc3-n3c(CNc4ccc(F)cc4)ccc32)cc1` (centres undefined), in experiment [1], the IC50 is 5870 nM and the Ki is reported as 2200 nM.

Take `COc1ccc(C2Sc3ccccc3-n3c(CNCCc4ccc(OC)c(OC)c4)ccc32)cc1` (centres undefined): in experiment [1], the IC50 was determined as 534 nM and the Ki is on record as 200 nM.

Take `CCC(C)NCc1ccc2n1-c1ccccc1SC2c1ccc(OC)cc1OC` (centres undefined): in experiment [1], the IC50 is given as 14.8 nM and the Ki came out at 5.55 nM.

As for `COc1ccc([C@@H]2Sc3ccccc3N(CCN(C)C)C(=O)[C@@H]2OC(C)=O)cc1` [DILTIAZEM], the Activity in the experiment listed under Mus musculus [2] came out at 62%; in the experiment listed under Mus musculus [3] it was 24%.

Turning to `CN(C)Cc1ccc2n1-c1ccccc1SC2c1ccccc1` (centres undefined), in experiment [1], the IC50 came out at 315 nM and the Ki is 118 nM. Also, the Activity in the experiment filed under Mus musculus [3] was 40% and 65%.

As for `COc1ccc(C2Sc3ccccc3-n3c(CN(C)CCc4ccc(OC)c(OC)c4)ccc32)cc1.Cl` (centres undefined), in experiment [1], the IC50 is given as 53 nM and the Ki worked out at 19 nM.
